According to patent US10662221B2, “Cystargolide compounds and uses thereof” (UNIVERSITY OF PRINCE EDWARD ISLAND, priority 2015, dated 2020):
Several values for one entry are separate records, joined by “and”; a condition that tells them apart may be missing. Equal values may be shown once.

Experiments:
rabbit 20S proteasome = conditions: read-out: IC50, inhibition of chymotrypsin-like activity of the rabbit 20S proteasome; cited from earlier work
human 20S proteasome = target: T1, human 20S proteasome (Homo sapiens, UniProt P28074); assay: 20S proteasome inhibition assay (chymotrypsin-like activity, Suc-LLVY-AMC cleavage); type: biochemical; conditions: purified human erythrocyte 20S proteasome 3 μg/mL, Suc-LLVY-AMC 75 μM, 30° C., 10 min preincubation, triplicate ± SD
T1 construct: purified human erythrocyte 20S proteasome; purchased Enzo Life Sciences BML-PW8720-0020; host or cells: purified from human erythrocytes (native tissue material)

[1] = Stability in mild acidic conditions; type: physicochemical; conditions: resulting in polymerization
Description: The fifth degree of unsaturation was attributed to cyclization. Two options were therefore available; a macrolactone cyclization between C-1 and the C-2″ hydroxyl, or a β-lactone between C-4″ and the C-2″ hydroxyl. The presence of IR absorption at 1835 cm^−1 was characteristic of a β-lactone carbonyl stretching band and therefore strongly supports cyclization between C-4″ and the hydroxyl at C-2″. The lack of HMBC correlation between H-2″ and C-1 also supported a β-lactone cyclization. The presence of the β-lactone was further confirmed by the instability of 1 in mild acidic conditions resulting in polymerization. The relative configuration at the C-2″ and C-3″ positions on the β-lactone moiety was determined from an analysis of the ^3JHH values.

IC50 (human 20S proteasome)	stability in mild acidic conditions [1]	Compound	IC50 (rabbit 20S proteasome) [nM]
		belactosin C	210
360 nM and 350 nM	instability	CCC(C)[C@H](NC(=O)[C@@H](NC(=O)C1OC(=O)C1C(C)C)C(C)C)C(=O)O (some centres unmarked) [Compound 1, Cystargolide A]	
930 nM		CC(C)C1C(=O)OC1C(=O)N[C@H](C(=O)N[C@H](C(=O)O)C(C)C)C(C)C (some centres unmarked) [Compound 2, Cystargolide B]	
		belactosin A	210
